Measurements from PubChem BioAssay AID212 (DTP/NCI, 2004).
Several values for one entry are separate records, joined by “and”; a condition that tells them apart may be missing. Equal entries are not always repeated. Records with an inconclusive call do not appear.

Test system: BDF1 mice, colon carcinoma 38 sc, T/C %
Experiment: NCI In Vivo Anticancer Drug Screen. Data for tumor model Colon Carcinoma 38 (subcutaneous) in B6D2F1 (BDF1) mice
Outline: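 Compound antitumor activity was assessed in mice carrying transplantable tumors. Survival or tumor size was recorded, and each value is the treated-group measurement divided by that of the vehicle-treated control group.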

[1] = endpoint: median tumor weight (est.), dose: 12.5 mg/kg/injection, schedule: Q07DX002 (ip), vehicle: saline with Tween-80, higher = larger tumour
[2] = endpoint: median tumor weight (est.), dose: 25.0 mg/kg/injection, schedule: Q07DX002 (ip), vehicle: saline with Tween-80, higher = larger tumour
[3] = endpoint: median tumor weight (est.), dose: 50.0 mg/kg/injection, schedule: Q07DX002 (ip), vehicle: saline with Tween-80, higher = larger tumour
[4] = endpoint: median tumor weight (est.), dose: 100.0 mg/kg/injection, schedule: Q07DX002 (ip), vehicle: saline with Tween-80, higher = larger tumour

## COc1ccc([I+]c2cccc(Cl)c2)cc1Cl
endpoint: median tumor weight (est.), dose: 6.25 mg/kg/injection, schedule: Q07DX003 (ip), vehicle: saline with Tween-80, higher = larger tumour
  T/C: 54 % of control
endpoint: median tumor weight (est.), dose: 12.5 mg/kg/injection, schedule: Q07DX003 (ip), vehicle: saline with Tween-80, higher = larger tumour
  T/C: 78 % of control
endpoint: median tumor weight (est.), dose: 25.0 mg/kg/injection, schedule: Q07DX003 (ip), vehicle: saline with Tween-80, higher = larger tumour
  T/C: 100 % of control
endpoint: median tumor weight (est.), dose: 50.0 mg/kg/injection, schedule: Q07DX003 (ip), vehicle: saline with Tween-80, higher = larger tumour
  T/C: 111 % of control
endpoint: median tumor weight (est.), dose: 100.0 mg/kg/injection, schedule: Q07DX003 (ip), vehicle: saline with Tween-80, higher = larger tumour
  T/C: 105 % of control
endpoint: median tumor weight (est.), dose: 200.0 mg/kg/injection, schedule: Q07DX003 (ip), vehicle: saline with Tween-80, higher = larger tumour
  T/C: 72 % of control

## CC1=C(O)C(=O)[C@@H]2O[C@@H]2C1=O
endpoint: median tumor weight (est.), dose: 3.12 mg/kg/injection, schedule: Q07DX002 (ip), vehicle: saline, higher = larger tumour
  T/C: 90 % of control
endpoint: median tumor weight (est.), dose: 6.25 mg/kg/injection, schedule: Q07DX002 (ip), vehicle: saline, higher = larger tumour
  T/C: 106 % of control
endpoint: median tumor weight (est.), dose: 12.5 mg/kg/injection, schedule: Q07DX002 (ip), vehicle: saline, higher = larger tumour
  T/C: 71 % of control

## CCCCCCCC(=O)N/N=C(\CO)[C@]1(O)Cc2c(O)c3c(c(O)c2[C@@H](OC2CC(N)C(O)C(C)O2)C1)C(=O)c1c(OC)cccc1C3=O (stereo partly drawn)
endpoint: median survival time, dose: 30.0 mg/kg/injection, schedule: Q07DX002 (sc), vehicle: saline, higher = longer survival
  T/C: 100 % of control
endpoint: median survival time, dose: 48.0 mg/kg/injection, schedule: Q07DX002 (sc), vehicle: saline, higher = longer survival
  T/C: 75 % of control
endpoint: median survival time, dose: 126.0 mg/kg/injection, schedule: Q07DX002 (sc), vehicle: saline, higher = longer survival
  T/C: 105 % of control
endpoint: median tumor weight (est.), dose: 6.75 mg/kg/injection, schedule: Q07DX002 (ip), vehicle: distilled water + Tween-80, higher = larger tumour
  T/C: 84 % of control
endpoint: median tumor weight (est.), dose: 6.75 mg/kg/injection, schedule: Q07DX002 (ip), vehicle: suspension in saline, higher = larger tumour
  T/C: 97 % of control
endpoint: median tumor weight (est.), dose: 13.5 mg/kg/injection, schedule: Q07DX002 (ip), vehicle: suspension in saline, higher = larger tumour
  T/C: 73 % of control
endpoint: median tumor weight (est.), dose: 27.0 mg/kg/injection, schedule: Q07DX002 (ip), vehicle: suspension in saline, higher = larger tumour
  T/C: 101 % of control
endpoint: median tumor weight (est.), dose: 54.0 mg/kg/injection, schedule: Q07DX002 (ip), vehicle: distilled water + Tween-80, higher = larger tumour
  T/C: 18 % of control and 41 % of control
endpoint: median tumor weight (est.), dose: 54.0 mg/kg/injection, schedule: Q07DX002 (ip), vehicle: suspension in saline, higher = larger tumour
  T/C: 58 % of control

## CCCCNC(C)C1(O)Cc2c(O)c3c(c(O)c2C(OC2CC(N)C(O)C(C)O2)C1)C(=O)c1c(OC)cccc1C3=O (stereo not drawn)
endpoint: median tumor weight (est.), dose: 40.0 mg/kg/injection, schedule: Q07DX002 (ip), vehicle: saline, higher = larger tumour
  T/C: 95 % of control
endpoint: median tumor weight (est.), dose: 80.0 mg/kg/injection, schedule: Q07DX002 (ip), vehicle: saline, higher = larger tumour
  T/C: 101 % of control
endpoint: median tumor weight (est.), dose: 160.0 mg/kg/injection, schedule: Q07DX002 (ip), vehicle: saline, higher = larger tumour
  T/C: 116 % of control
endpoint: median tumor weight (est.), dose: 320.0 mg/kg/injection, schedule: Q07DX002 (ip), vehicle: saline, higher = larger tumour
  T/C: 47 % of control

## COC1C(O)C(C)OC(OC2C(Oc3cccc4c(O)c5c(=O)oc6ccc(C)c7c(=O)oc(c34)c5c67)OC(C)C(O)C2O)C1O (stereo not drawn)
endpoint: median tumor weight (est.), dose: 12.5 mg/kg/injection, schedule: Q07DX002 (ip), vehicle: Klucel (hydroxypropylcellulose) (HPC), higher = larger tumour
  T/C: 118 % of control and 108 % of control
[1]
  T/C: 111 % of control
endpoint: median tumor weight (est.), dose: 12.5 mg/kg/injection, schedule: Q07DX003 (ip), vehicle: Klucel (hydroxypropylcellulose) (HPC), higher = larger tumour
  T/C: 72 % of control and 92 % of control
endpoint: median tumor weight (est.), dose: 25.0 mg/kg/injection, schedule: Q07DX002 (ip), vehicle: Klucel (hydroxypropylcellulose) (HPC), higher = larger tumour
  T/C: 57 % of control
[2]
  T/C: 83 % of control
endpoint: median tumor weight (est.), dose: 25.0 mg/kg/injection, schedule: Q07DX003 (ip), vehicle: Klucel (hydroxypropylcellulose) (HPC), higher = larger tumour
  T/C: 103 % of control
[3]
  T/C: 84 % of control
[4]
  T/C: 75 % of control
endpoint: median tumor weight (est.), dose: 100.0 mg/kg/injection, schedule: Q07DX003 (ip), vehicle: Klucel (hydroxypropylcellulose) (HPC), higher = larger tumour
  T/C: 88 % of control and 104 % of control
endpoint: median tumor weight (est.), dose: 200.0 mg/kg/injection, schedule: Q07DX002 (ip), vehicle: Klucel (hydroxypropylcellulose) (HPC), higher = larger tumour
  T/C: 157 % of control
endpoint: median tumor weight (est.), dose: 200.0 mg/kg/injection, schedule: Q07DX002 (ip), vehicle: saline with Tween-80, higher = larger tumour
  T/C: 107 % of control

## COc1ccc(C(=O)c2no[n+]([O-])c2C(=O)c2ccc(OC)cc2)cc1
[1]
  T/C: 107 % of control
[3]
  T/C: 99 % of control and 106 % of control

## Nc1ccc(C(OC(=O)c2cc3ccccc3c(Cc3c(O)c(C(=O)OC(c4ccc(N)cc4)(c4ccc(N)cc4)c4ccc(N)cc4)cc4ccccc34)c2O)(c2ccc(N)cc2)c2ccc(N)cc2)cc1
endpoint: median tumor weight (est.), dose: 1.56 mg/kg/injection, schedule: Q07DX002 (ip), vehicle: saline with Tween-80, higher = larger tumour
  T/C: 100 % of control
endpoint: median tumor weight (est.), dose: 3.12 mg/kg/injection, schedule: Q07DX002 (ip), vehicle: saline with Tween-80, higher = larger tumour
  T/C: 70 % of control
endpoint: median tumor weight (est.), dose: 6.25 mg/kg/injection, schedule: Q07DX002 (ip), vehicle: saline with Tween-80, higher = larger tumour
  T/C: 92 % of control
[2]
  T/C: 84 % of control and 93 % of control
[3]
  T/C: 114 % of control

## Nc1cc(Cl)c2[nH]cnc2n1
endpoint: median tumor weight (est.), dose: 12.5 mg/kg/injection, schedule: Q07DX002 (ip), vehicle: water, higher = larger tumour
  T/C: 86 % of control
endpoint: median tumor weight (est.), dose: 25.0 mg/kg/injection, schedule: Q07DX002 (ip), vehicle: water, higher = larger tumour
  T/C: 119 % of control
endpoint: median tumor weight (est.), dose: 50.0 mg/kg/injection, schedule: Q07DX002 (ip), vehicle: distilled water + Tween-80, higher = larger tumour
  T/C: 99 % of control
endpoint: median tumor weight (est.), dose: 50.0 mg/kg/injection, schedule: Q07DX002 (ip), vehicle: water, higher = larger tumour
  T/C: 82 % of control
endpoint: median tumor weight (est.), dose: 100.0 mg/kg/injection, schedule: Q07DX002 (ip), vehicle: distilled water + Tween-80, higher = larger tumour
  T/C: 76 % of control
endpoint: median tumor weight (est.), dose: 100.0 mg/kg/injection, schedule: Q07DX002 (ip), vehicle: water, higher = larger tumour
  T/C: 101 % of control
endpoint: median tumor weight (est.), dose: 200.0 mg/kg/injection, schedule: Q07DX002 (ip), vehicle: distilled water + Tween-80, higher = larger tumour
  T/C: 108 % of control
endpoint: median tumor weight (est.), dose: 200.0 mg/kg/injection, schedule: Q07DX002 (ip), vehicle: water, higher = larger tumour
  T/C: 81 % of control
endpoint: median tumor weight (est.), dose: 400.0 mg/kg/injection, schedule: Q07DX002 (ip), vehicle: water, higher = larger tumour
  T/C: 81 % of control

## Nc1ccc(Cn2ccc3c4c(N)nc(N)nc4ccc32)cc1
endpoint: median tumor weight (est.), dose: 1.25 mg/kg/injection, schedule: Q07DX002 (ip), vehicle: saline with Tween-80, higher = larger tumour
  T/C: 90 % of control
endpoint: median tumor weight (est.), dose: 2.5 mg/kg/injection, schedule: Q07DX002 (ip), vehicle: saline with Tween-80, higher = larger tumour
  T/C: 93 % of control and 106 % of control
endpoint: median tumor weight (est.), dose: 40.0 mg/kg/injection, schedule: Q07DX002 (ip), vehicle: saline with Tween-80, higher = larger tumour
  T/C: 59 % of control

## CC(=O)OC1C2OC3C=C(C)CCC3(CO)C(C)(C1OC(C)=O)C21CO1 (stereo not drawn)
endpoint: median tumor weight (est.), dose: 0.5 mg/kg/injection, schedule: Q07DX003 (ip), vehicle: saline, higher = larger tumour
  T/C: 50 % of control and 61 % of control
endpoint: median tumor weight (est.), dose: 1.0 mg/kg/injection, schedule: Q07DX003 (ip), vehicle: saline, higher = larger tumour
  T/C: 87 % of control and 101 % of control
endpoint: median tumor weight (est.), dose: 2.0 mg/kg/injection, schedule: Q07DX003 (ip), vehicle: saline, higher = larger tumour
  T/C: 111 % of control and 117 % of control
endpoint: median tumor weight (est.), dose: 2.5 mg/kg/injection, schedule: Q01DX001 (ip), vehicle: saline, higher = larger tumour
  T/C: 266 % of control
endpoint: median tumor weight (est.), dose: 4.0 mg/kg/injection, schedule: Q07DX003 (ip), vehicle: saline, higher = larger tumour
  T/C: 69 % of control and 75 % of control
endpoint: median tumor weight (est.), dose: 5.0 mg/kg/injection, schedule: Q01DX001 (ip), vehicle: saline, higher = larger tumour
  T/C: 231 % of control
endpoint: median tumor weight (est.), dose: 10.0 mg/kg/injection, schedule: Q01DX001 (ip), vehicle: saline, higher = larger tumour
  T/C: 173 % of control

## O=C1NCC(Br)C(=O)N1 (stereo not drawn)
endpoint: median tumor weight (est.), dose: 12.5 mg/kg/injection, schedule: Q07DX002 (ip), vehicle: saline + Tween-80 + alcohol, higher = larger tumour
  T/C: 97 % of control
endpoint: median tumor weight (est.), dose: 25.0 mg/kg/injection, schedule: Q07DX002 (ip), vehicle: saline + Tween-80 + alcohol, higher = larger tumour
  T/C: 83 % of control
endpoint: median tumor weight (est.), dose: 50.0 mg/kg/injection, schedule: Q07DX002 (ip), vehicle: saline + Tween-80 + alcohol, higher = larger tumour
  T/C: 99 % of control
endpoint: median tumor weight (est.), dose: 100.0 mg/kg/injection, schedule: Q07DX002 (ip), vehicle: saline + Tween-80 + alcohol, higher = larger tumour
  T/C: 76 % of control
[4]
  T/C: 157 % of control
endpoint: median tumor weight (est.), dose: 200.0 mg/kg/injection, schedule: Q07DX002 (ip), vehicle: saline + Tween-80 + alcohol, higher = larger tumour
  T/C: 84 % of control
endpoint: median tumor weight (est.), dose: 400.0 mg/kg/injection, schedule: Q07DX002 (ip), vehicle: saline + Tween-80 + alcohol, higher = larger tumour
  T/C: 63 % of control

## CNC(=O)n1c(N)nc(-c2ccccc2)c1-c1ccccc1
[1]
  T/C: 80 % of control
[2]
  T/C: 99 % of control
[3]
  T/C: 119 % of control
[4]
  T/C: 98 % of control

## COc1cccc2c1C(=N)c1c(O)c3c(c(O)c1C2=O)C[C@@](O)(C(C)=O)C[C@@H]3OC1CC(N)C(O)C(C)O1 (stereo partly drawn)
endpoint: median tumor weight (est.), dose: 2.25 mg/kg/injection, schedule: Q07DX002 (ip), vehicle: saline, higher = larger tumour
  T/C: 71 % of control
endpoint: median tumor weight (est.), dose: 4.5 mg/kg/injection, schedule: Q07DX002 (ip), vehicle: saline, higher = larger tumour
  T/C: 115 % of control
endpoint: median tumor weight (est.), dose: 9.0 mg/kg/injection, schedule: Q07DX002 (ip), vehicle: saline, higher = larger tumour
  T/C: 99 % of control
